Results on 16 compounds are retold here after ChEMBL document CHEMBL1131087, “New cyclooxygenase-2/5-lipoxygenase inhibitors. 3. 7-tert-butyl-2, 3-dihydro-3,3-dimethylbenzofuran derivatives as gastrointestinal safe antiinflammatory and analgesic agents: variations at the 5 position” (J Med Chem, 1998).

Test [1] deals with Rattus norvegicus. Description: Comparative activity versus Dihydrodimethylbenzofurans in the CPE (Carrageenan paw edema) assay; (-) indicates the compound is inactive. Type of test: functional, organism-based.
For test [2], the system named is Rattus norvegicus. The test is described as follows: Inhibition of paw swelling relative to the tebufelone in rat. Value was reported as Carrageenan paw edema index. The test is classed as functional. (Carrageenan injected into the paw causes an acute inflammation.)
Test [3] concerns Rattus norvegicus. Description: Compound was tested at a dose of 50 mg/kg for its antiinflammatory activity in carrageenan paw edema (CPE) assay.
Test [4] is filed under the species Rattus norvegicus. Description: Compound was tested for its analgesic activity in phenylquinone-induced abdominal constriction assay(PAC). Type of test: functional. The note with it: Abdomen.
The target of test [5] is T1, Polyunsaturated fatty acid 5-lipoxygenase (Homo sapiens, UniProt P09917).
T1 sequence (P09917 whole entry): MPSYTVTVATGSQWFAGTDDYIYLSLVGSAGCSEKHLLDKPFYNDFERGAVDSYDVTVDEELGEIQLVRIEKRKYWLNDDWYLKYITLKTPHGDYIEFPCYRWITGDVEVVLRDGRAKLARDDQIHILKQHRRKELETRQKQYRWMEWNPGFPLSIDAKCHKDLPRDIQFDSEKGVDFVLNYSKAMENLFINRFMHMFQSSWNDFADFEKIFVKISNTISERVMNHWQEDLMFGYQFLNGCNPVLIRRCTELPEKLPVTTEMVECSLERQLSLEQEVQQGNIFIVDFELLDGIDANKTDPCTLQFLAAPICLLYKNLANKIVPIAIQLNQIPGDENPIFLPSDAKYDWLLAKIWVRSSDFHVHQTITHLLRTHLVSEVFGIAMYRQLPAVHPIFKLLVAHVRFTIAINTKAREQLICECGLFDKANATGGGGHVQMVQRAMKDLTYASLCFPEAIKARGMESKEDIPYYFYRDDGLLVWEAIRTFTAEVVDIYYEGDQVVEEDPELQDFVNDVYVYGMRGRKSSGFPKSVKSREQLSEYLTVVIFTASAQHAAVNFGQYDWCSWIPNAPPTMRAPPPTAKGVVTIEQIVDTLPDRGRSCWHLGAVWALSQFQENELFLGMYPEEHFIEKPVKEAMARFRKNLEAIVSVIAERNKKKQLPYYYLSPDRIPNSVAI
The test is described as follows: Inhibition of 5-Lipoxygenase (5-LOX).

Test [6] concerns the target T2, Prostaglandin G/H synthase 2 (Homo sapiens, UniProt P35354).
T2 sequence (P35354 whole entry): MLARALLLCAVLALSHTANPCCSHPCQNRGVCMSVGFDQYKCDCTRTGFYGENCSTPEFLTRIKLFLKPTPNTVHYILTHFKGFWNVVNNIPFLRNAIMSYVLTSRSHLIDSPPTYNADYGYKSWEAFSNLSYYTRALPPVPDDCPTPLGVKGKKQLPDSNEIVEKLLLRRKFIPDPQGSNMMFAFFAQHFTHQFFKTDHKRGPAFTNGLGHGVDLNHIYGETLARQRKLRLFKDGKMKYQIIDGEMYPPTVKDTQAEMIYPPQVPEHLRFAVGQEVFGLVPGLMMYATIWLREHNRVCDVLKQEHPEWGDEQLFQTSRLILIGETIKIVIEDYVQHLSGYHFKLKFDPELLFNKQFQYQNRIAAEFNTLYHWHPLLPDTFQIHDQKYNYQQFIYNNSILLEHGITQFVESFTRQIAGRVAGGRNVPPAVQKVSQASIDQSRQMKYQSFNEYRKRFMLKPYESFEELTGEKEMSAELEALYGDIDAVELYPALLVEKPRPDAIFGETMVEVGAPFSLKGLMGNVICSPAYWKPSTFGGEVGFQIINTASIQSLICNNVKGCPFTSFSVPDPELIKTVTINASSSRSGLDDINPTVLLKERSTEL
Description: Inhibitory activity against prostaglandin G/H synthase 2 (COX-2)

In test [7] the target is Prostaglandin G/H synthase 1 (Homo sapiens, UniProt P23219).
Description: Inhibitory activity against prostaglandin G/H synthase 1 (COX-1)
The species entered for test [8] is Rattus norvegicus. The test is described as follows: Comparative activity versus Dihydrodimethylbenzofurans in the CPE assay; -, indicates inactive. Type of test: functional, organism-based.
Test [9] deals with Rattus norvegicus. The test is described as follows: Comparative activity versus Dihydrodimethylbenzofurans in the CPE (Carrageenan paw edema) assay; -, inactive. The test is classed as functional, organism-based.
Test [10] in a line: Comparative activity versus Dihydrodimethylbenzofurans in the CPE (Carrageenan paw edema) assay; -, inactive. The note with it: Rattus norvegicus.
Test [11] has as its system Rattus norvegicus. The test is described as follows: Analgesic activity (50 mg/kg, sc)in phenylquinone-induced abdominal constriction assay(PAC). Type of test: functional, Abdomen.

SMILES strings stand for the structures. The source made the active and inactive calls. No cut-off for these calls is given here.

Sequence of Prostaglandin G/H synthase 1 (P23219 whole entry): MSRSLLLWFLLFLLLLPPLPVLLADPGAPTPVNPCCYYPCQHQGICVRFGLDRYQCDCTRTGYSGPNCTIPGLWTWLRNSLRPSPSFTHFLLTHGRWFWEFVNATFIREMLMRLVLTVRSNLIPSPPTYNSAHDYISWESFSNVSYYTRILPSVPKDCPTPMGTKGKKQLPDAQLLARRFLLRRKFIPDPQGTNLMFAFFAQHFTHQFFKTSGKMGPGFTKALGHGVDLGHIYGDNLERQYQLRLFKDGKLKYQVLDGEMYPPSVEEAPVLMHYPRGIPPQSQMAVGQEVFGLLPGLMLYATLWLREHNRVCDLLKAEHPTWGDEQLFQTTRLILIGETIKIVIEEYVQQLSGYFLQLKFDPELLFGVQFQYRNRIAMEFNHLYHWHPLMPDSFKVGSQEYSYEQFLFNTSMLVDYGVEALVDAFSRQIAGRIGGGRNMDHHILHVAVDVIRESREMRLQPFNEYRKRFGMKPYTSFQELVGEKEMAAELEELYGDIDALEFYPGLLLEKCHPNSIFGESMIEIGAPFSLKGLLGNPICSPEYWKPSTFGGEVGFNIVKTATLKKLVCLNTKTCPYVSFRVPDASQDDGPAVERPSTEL

On to `Cc1nc(-c2cc(C(C)(C)C)c(O)c(C(C)(C)C)c2)no1`, for which the result with Rattus norvegicus [1] was inactive.

On to `Cc1cc(/C=C\c2cc(C(C)(C)C)c3c(c2)C(C)(C)CO3)on1`, for which the CPE index in the test with Rattus norvegicus [2] was found to be 0. Moreover, the outcome in the test with Rattus norvegicus [1] was inactive.

In turn, `C#CCCCC(=O)c1cc(C(C)(C)C)c(O)c(C(C)(C)C)c1` [TEBUFELONE] showed an inhibition in vivo at 50 mg/kg with Rattus norvegicus [3] of 51.1%. In the test filed under Rattus norvegicus [4], this compound yielded an ED50 of 3.7 mg/kg.

With `CC(=O)Nc1cc(C(C)(C)C)c(O)c(C(C)(C)C)c1`, in the test on Rattus norvegicus [1], the result was inactive.

As for `CC(C)(C)c1cc(C(N)=O)cc(C(C)(C)C)c1O`, the result in the test on Rattus norvegicus [1] was inactive.

Take `CC(C)(C)c1cc(C(=O)O)cc(C(C)(C)C)c1O`: the result in the test on Rattus norvegicus [1] was inactive.

Consider `CC(C)(C)c1cc(-c2cn3c(n2)S(=O)(=O)C=C3)cc(C(C)(C)C)c1O`, for which the outcome in the test on Rattus norvegicus [1] was inactive.

For `CCN(C)C(=O)c1cc(C(C)(C)C)c2c(c1)C(C)(C)CO2`, the IC50 in [5] stood at 22 µM; in test [6] it was 4.5 µM; in test [7], 2.5 µM. Besides, in the test with Rattus norvegicus [2], the CPE index was 0.86. Moreover, in the test listed under Rattus norvegicus [4], the 50% effect level (ED50) was put at a dose of 19 mg/kg.

As to `CC(C)(C)c1cc(-c2cn3c(n2)S(=O)(=O)C=C3)cc2c1OCC2(C)C`, the outcome in the test filed under Rattus norvegicus [8] was inactive. The same compound returned a CPE index with Rattus norvegicus [2] of 0.19.

Turning to `CN(C)C(=O)c1cc(C(C)(C)C)c2c(c1)C(C)(C)CO2`, the result with Rattus norvegicus [9] was inactive. For the same compound, in the test with Rattus norvegicus [2], the CPE index is given as 0.36.

In the case of `CC(C)(C)c1cc(/C=C2/SC(N)=NC2=O)cc2c1OCC2(C)C`, the CPE index with Rattus norvegicus [2] worked out at 0.07. In addition, the half-maximal inhibitory concentration (IC50) came out at 3 µM in test [6] and 5 µM in test [7]. For the same compound, the outcome in the test on Rattus norvegicus [1] was inactive.

As for `CC(C)(C)c1cc(C(N)=O)cc2c1OCC2(C)C`, in the test on Rattus norvegicus [2], the CPE index was determined as 0.07. The result in [10] was inactive.

With `CN(C(=O)c1cc(C(C)(C)C)c2c(c1)C(C)(C)CO2)C1CC1`, the IC50 is 12 µM in test [5], 1 µM in test [6] and 5 µM in test [7]. In the test with Rattus norvegicus [2], this compound returned a CPE index of 1.82. For the same compound, in the test filed under Rattus norvegicus [4], it took a dose of 10 mg/kg to reach the 50% effect level (ED50).

In the test with Rattus norvegicus [2], `CCNC(=O)c1cc(C(C)(C)C)c2c(c1)C(C)(C)CO2` displayed a CPE index of 0.88. Also, the IC50 in test [6] came to 6 µM; in test [7], 20 µM. This compound gave an Inhibition with Rattus norvegicus [11] of 56%.

Compound `CC(C)(C)c1cc(/C=C\c2ccccn2)cc2c1OCC2(C)C` came in with a CPE index with Rattus norvegicus [2] of 0.5. For the same compound, the outcome in the test on Rattus norvegicus [1] was inactive.

Consider `COc1ccc2cc([C@H](C)C(=O)O)ccc2c1` [NAPROXEN], for which, in the test with Rattus norvegicus [2], the CPE index was 1.06. Also, the Inhibition in the test with Rattus norvegicus [11] was 54%. The compound also came in with an ED50 in the test listed under Rattus norvegicus [4] of 1.3 mg/kg.

As usually defined, the inhibition in vivo is the percentage by which the read-out fell short of the control. The ED50 is the dose at which the effect has come halfway, by size or by number of responders. A high value points to weaker potency. The term IC50 denotes the point on the concentration scale where inhibition reaches its midpoint. Read a high IC50 as weaker potency. For orientation: Inhibition means the percentage by which the read-out fell short of the control. The low end stands for little suppression, the high end for strong suppression.
